In the SangsterLogP compilation:

test: method code SF-AS, from DOI: 10.1016/0048-3575(79)90081-6; details: not given

Row | SMILES | logP
1 | COc1ccccc1N1C(=O)CCC1=O | -0.02
2 | O=C1CCC(=O)N1c1cccc(Br)c1 | 1.09
3 | O=C1CCC(=O)N1c1cccc([N+](=O)[O-])c1 | 0.38
4 | Cc1ccccc1N1C(=O)CCC1=O | 0.29
5 | O=C1CCC(=O)N1c1ccccc1[N+](=O)[O-] | 0.36
6 | O=C1CCC(=O)N1c1ccccc1I | 0.8
7 | O=C1CCC(=O)N1c1cccc(Cl)c1 | 0.98
8 | O=C1CCC(=O)N1c1ccccc1Cl | 0.56
9 | N#Cc1cccc(N2C(=O)CCC2=O)c1 | 0.02
10 | Cc1cccc(N2C(=O)CCC2=O)c1 | 0.57
11 | O=C1CCC(=O)N1c1ccccc1F | 0.22
12 | COC(=O)c1cccc(N2C(=O)CCC2=O)c1 | 0.36
13 | O=C1CCC(=O)N1c1ccccc1C(F)(F)F | 0.76
14 | CCc1ccccc1N1C(=O)CCC1=O | 0.64
15 | CCc1cccc(N2C(=O)CCC2=O)c1 | 1.04
16 | O=C1CCC(=O)N1c1ccccc1Br | 0.65

The remaining lines, values ahead:

Row | logP | SMILES
17 | 1.1 | CCc1ccc(N2C(=O)CCC2=O)cc1
18 | 0.58 | Cc1ccc(N2C(=O)CCC2=O)cc1
19 | 1.18 | O=C1CCC(=O)N1c1ccc(Br)cc1
20 | 0.29 | O=C1CCC(=O)N1c1ccc(F)cc1
21 | 0.38 | O=C1CCC(=O)N1c1cccc(F)c1
22 | 0.06 | O=C1CCC(=O)N1c1ccccc1
23 | 0.96 | O=C1CCC(=O)N1c1ccc(Cl)cc1
24 | 0.46 | O=C1CCC(=O)N1c1ccc([N+](=O)[O-])cc1

same assay, conditions: pH 7.4

Row | logD | SMILES
25 | 1.39 | O=C1CCC(=O)N1c1cccc(I)c1
